# Experimental data taken from patent US20240132521A1, “COMPOUNDS AND METHODS FOR MODULATING HER2” (Iambic Therapeutics, Inc., priority 2022, published 2024).
# Tests used:
# Type in all cases: cell-based
# BaF3_HER2WT cells = BaF3_HER2WT cells (Homo sapiens, UniProt P04626); assay: Cell growth inhibition assay (CellTiterGlo), BaF3_HER2WT; conditions: 3-day treatment, CellTiterGlo, read-out: Cell growth inhibition activity, HER2 WT
# BaF3_HER2YVMA cells = BaF3_HER2YVMA cells (Homo sapiens, UniProt P04626, DUP772-775, cells depend on it); assay: Cell growth inhibition assay (CellTiterGlo), BaF3_HER2YVMA; conditions: 3-day treatment, CellTiterGlo, read-out: Cell growth inhibition activity, HER2 - YVMA
# BaF3_HER2YVMA cells, sequence (P04626 with tags, fused parts or gaps DUP772-775): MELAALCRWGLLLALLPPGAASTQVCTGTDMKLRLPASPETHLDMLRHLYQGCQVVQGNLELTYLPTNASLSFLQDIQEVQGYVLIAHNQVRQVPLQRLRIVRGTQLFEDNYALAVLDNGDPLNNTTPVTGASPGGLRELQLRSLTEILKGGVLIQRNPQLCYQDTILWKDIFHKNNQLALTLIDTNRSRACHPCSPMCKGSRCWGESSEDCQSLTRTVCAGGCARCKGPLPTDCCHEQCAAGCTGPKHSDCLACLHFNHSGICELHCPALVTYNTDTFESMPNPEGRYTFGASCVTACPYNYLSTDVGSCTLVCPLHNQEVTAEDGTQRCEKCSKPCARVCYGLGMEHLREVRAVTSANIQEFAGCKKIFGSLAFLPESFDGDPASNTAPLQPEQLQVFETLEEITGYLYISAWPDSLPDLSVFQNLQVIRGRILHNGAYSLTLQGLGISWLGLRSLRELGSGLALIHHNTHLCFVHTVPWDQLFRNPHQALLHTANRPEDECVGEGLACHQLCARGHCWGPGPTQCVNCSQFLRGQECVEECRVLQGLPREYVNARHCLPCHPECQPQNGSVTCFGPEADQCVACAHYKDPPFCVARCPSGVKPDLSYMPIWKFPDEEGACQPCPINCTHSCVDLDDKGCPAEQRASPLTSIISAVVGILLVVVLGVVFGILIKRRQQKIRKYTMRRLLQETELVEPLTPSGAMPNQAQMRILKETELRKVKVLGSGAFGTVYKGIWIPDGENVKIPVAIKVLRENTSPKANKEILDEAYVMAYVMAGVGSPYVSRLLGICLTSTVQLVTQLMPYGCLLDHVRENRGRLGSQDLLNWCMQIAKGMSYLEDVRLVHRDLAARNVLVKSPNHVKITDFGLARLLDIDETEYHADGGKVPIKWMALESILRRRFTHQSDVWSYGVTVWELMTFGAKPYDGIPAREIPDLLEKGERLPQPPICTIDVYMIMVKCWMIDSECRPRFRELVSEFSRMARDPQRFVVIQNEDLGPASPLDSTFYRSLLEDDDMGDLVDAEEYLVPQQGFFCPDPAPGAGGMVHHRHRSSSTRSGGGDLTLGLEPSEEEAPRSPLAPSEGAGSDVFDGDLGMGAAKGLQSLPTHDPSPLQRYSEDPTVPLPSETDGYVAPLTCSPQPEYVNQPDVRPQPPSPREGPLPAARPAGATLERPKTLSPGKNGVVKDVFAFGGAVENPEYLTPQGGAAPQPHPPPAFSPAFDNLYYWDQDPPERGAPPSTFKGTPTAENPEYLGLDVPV
# BaF3_EGFRWT cells = BaF3_EGFRWT cells (Homo sapiens, UniProt P00533); assay: Cell growth inhibition assay (CellTiterGlo), BaF3_EGFRWT; conditions: 3-day treatment, CellTiterGlo, read-out: Cell growth inhibition activity, EGFR WT
# BaF3_EGFRWT cells, sequence (P00533 whole entry, change not shown): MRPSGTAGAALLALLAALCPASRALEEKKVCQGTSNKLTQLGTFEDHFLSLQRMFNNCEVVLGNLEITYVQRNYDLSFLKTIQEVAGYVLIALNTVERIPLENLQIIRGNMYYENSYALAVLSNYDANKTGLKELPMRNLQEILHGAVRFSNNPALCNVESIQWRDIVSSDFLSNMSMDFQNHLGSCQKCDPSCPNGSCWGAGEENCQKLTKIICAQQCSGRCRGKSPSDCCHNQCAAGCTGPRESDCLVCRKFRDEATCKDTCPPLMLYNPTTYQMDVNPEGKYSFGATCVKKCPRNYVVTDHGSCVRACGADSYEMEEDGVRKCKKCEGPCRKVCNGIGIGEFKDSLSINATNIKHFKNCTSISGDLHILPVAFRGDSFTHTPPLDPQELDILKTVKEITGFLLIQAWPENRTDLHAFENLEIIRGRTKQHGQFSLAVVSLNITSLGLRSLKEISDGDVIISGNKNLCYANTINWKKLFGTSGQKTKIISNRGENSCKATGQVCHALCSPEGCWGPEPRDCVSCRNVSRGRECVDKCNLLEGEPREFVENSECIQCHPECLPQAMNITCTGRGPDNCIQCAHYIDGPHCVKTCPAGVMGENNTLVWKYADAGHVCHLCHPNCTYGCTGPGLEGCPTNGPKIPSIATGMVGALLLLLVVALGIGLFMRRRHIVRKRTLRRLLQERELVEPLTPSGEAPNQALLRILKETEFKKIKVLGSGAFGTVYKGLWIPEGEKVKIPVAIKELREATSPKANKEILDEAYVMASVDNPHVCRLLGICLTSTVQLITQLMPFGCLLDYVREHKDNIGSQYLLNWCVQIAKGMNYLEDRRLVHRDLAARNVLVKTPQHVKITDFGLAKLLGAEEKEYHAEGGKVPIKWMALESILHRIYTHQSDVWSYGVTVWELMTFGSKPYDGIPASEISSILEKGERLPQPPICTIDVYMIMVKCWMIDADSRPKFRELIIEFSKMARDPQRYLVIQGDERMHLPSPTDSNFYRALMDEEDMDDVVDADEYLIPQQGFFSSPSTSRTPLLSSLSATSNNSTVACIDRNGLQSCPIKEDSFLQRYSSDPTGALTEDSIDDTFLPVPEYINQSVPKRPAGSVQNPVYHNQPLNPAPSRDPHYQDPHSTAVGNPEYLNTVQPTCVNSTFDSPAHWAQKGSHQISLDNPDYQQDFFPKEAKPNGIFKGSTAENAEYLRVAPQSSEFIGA
# BaF3_HER2WT cells, sequence (P04626 whole entry, change not shown): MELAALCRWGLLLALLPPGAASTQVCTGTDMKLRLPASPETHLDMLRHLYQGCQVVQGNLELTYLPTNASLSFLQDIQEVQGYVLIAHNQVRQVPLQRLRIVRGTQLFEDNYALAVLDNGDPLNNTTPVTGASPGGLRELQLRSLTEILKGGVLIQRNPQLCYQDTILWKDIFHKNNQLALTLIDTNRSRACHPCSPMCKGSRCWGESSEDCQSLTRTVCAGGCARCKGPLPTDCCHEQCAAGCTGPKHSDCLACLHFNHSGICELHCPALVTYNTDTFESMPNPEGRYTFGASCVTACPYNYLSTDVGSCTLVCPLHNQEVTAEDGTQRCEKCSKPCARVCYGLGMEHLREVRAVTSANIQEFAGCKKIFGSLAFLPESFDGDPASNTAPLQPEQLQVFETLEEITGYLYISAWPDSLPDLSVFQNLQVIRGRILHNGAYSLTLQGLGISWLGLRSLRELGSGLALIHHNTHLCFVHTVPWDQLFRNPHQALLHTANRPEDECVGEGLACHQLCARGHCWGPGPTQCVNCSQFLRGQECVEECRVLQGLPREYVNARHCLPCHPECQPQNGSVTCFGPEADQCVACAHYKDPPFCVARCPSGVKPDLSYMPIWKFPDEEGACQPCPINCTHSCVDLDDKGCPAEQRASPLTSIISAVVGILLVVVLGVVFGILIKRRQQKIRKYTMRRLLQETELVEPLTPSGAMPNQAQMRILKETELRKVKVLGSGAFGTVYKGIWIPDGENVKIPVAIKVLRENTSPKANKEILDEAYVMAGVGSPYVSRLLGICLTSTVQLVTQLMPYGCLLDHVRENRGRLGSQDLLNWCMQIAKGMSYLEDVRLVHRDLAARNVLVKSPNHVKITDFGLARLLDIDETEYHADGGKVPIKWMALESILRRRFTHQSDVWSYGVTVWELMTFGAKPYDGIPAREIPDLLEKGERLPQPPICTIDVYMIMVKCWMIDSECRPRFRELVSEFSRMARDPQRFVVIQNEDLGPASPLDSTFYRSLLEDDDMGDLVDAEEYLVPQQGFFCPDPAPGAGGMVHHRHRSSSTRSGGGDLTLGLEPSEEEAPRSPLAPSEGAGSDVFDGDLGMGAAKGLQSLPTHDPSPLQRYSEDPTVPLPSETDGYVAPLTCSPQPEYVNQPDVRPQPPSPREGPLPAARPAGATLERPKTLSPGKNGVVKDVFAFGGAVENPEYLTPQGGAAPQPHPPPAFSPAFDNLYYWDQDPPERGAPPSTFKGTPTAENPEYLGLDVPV
GI50 (BaF3_HER2WT cells) [nM],GI50 (BaF3_HER2YVMA cells) [nM],GI50 (BaF3_EGFRWT cells) [nM],Structure (SMILES)
200 to 500,500 to 1500,1500 to 5000,"COC1(c2ccn3ncnc(Nc4ccc(Oc5ccn6ncnc6c5)c(C)c4)c23)CCN(C(=O)/C=C/CN(C)C)CC1 [Example 52, (E)-1-(4-(4-((4-([1,2,4]triazolo[1,5-a]pyridin-7-yloxy)-3-methylphenyl)amino)pyrrolo[2,1-f][1,2,4]triazin-5-yl)-4-methoxypiperidin-1-yl)-4-(dimethylamino)but-2-en-1-one]"
< 200,< 200,1500 to 5000,"Cc1cc(Nc2ncnn3ccc(C4=CCN(C(=O)/C=C/CN(C)C)CC4)c23)ccc1Oc1ccn2ncnc2c1 [Example 53, (E)-1-(4-(4-((4-([1,2,4]triazolo[1,5-a]pyridin-7-yloxy)-3-methylphenyl)amino)pyrrolo[2,1-f][1,2,4]triazin-5-yl)-3,6-dihydropyridin-1(2H)-yl)-4-(dimethylamino)but-2-en-1-one]"
500 to 1500,1500 to 5000,1500 to 5000,"Cc1cc(Nc2ncnn3ccc(N4CCN(C(=O)/C=C/CN(C)C)CC4=O)c23)ccc1Oc1ccn2ncnc2c1 [Example 54, (E)-1-(4-((4-([1,2,4]triazolo[1,5-a]pyridin-7-yloxy)-3-methylphenyl)amino)pyrrolo[2,1-f][1,2,4]triazin-5-yl)-4-(4-(dimethylamino)but-2-enoyl)piperazin-2-one]"
< 200,500 to 1500,1500 to 5000,"C=CC(=O)N1CCC2CCC(C1)N2c1ccn2ncnc(Nc3ccc(Oc4ccn5ncnc5c4)c(C)c3)c12 (stereo not drawn) [Example 55, 1-(9-(4-((4-([1,2,4]triazolo[1,5-a]pyridin-7-yloxy)-3-methylphenyl)amino)pyrrolo[2,1-f][1,2,4]triazin-5-yl)-3,9-diazabicyclo[4.2.1]nonan-3-yl)prop-2-en-1-one]"
< 200,< 200,1500 to 5000,"Cc1cc(Nc2ncnn3ccc(C4CCN(C(=O)/C=C/CN5CCOCC5)CC4)c23)ccc1Oc1ccn2ncnc2c1 [Example 56, (E)-1-(4-(4-((4-([1,2,4]triazolo[1,5-a]pyridin-7-yloxy)-3-methylphenyl)amino)pyrrolo[2,1-f][1,2,4]triazin-5-yl)piperidin-1-yl)-4-morpholinobut-2-en-1-one]"
< 200,< 200,1500 to 5000,"Cc1cc(Nc2ncnn3ccc(C4CCN(C(=O)/C=C/CN5CCCCC5)CC4)c23)ccc1Oc1ccn2ncnc2c1 [Example 57, (E)-1-(4-(4-((4-([1,2,4]triazolo[1,5-a]pyridin-7-yloxy)-3-methylphenyl)amino)pyrrolo[2,1-f][1,2,4]triazin-5-yl)piperidin-1-yl)-4-(piperidin-1-yl)but-2-en-1-one]"
< 200,500 to 1500,1500 to 5000,"COC/C=C/C(=O)N1CCC(c2ccn3ncnc(Nc4ccc(Oc5ccn6ncnc6c5)c(C)c4)c23)CC1 [Example 58, (E)-1-(4-(4-((4-([1,2,4]triazolo[1,5-a]pyridin-7-yloxy)-3-methylphenyl)amino)pyrrolo[2,1-f][1,2,4]triazin-5-yl)piperidin-1-yl)-4-methoxybut-2-en-1-one]"
< 200,200 to 500,1500 to 5000,"C#CCN(C)C/C=C/C(=O)N1CCC(c2ccn3ncnc(Nc4ccc(Oc5ccn6ncnc6c5)c(C)c4)c23)CC1 [Example 59, (E)-1-(4-(4-((4-([1,2,4]triazolo[1,5-a]pyridin-7-yloxy)-3-methylphenyl)amino)pyrrolo[2,1-f][1,2,4]triazin-5-yl)piperidin-1-yl)-4-(methyl(prop-2-yn-1-yl)amino)but-2-en-1-one]"
< 200,< 200,1500 to 5000,"Cc1cc(Nc2ncnn3ccc(C4CN(C(=O)/C=C/CN5CCC(F)CC5)C4)c23)ccc1Oc1ccn2ncnc2c1 [Example 62, (E)-1-(3-(4-((4-([1,2,4]triazolo[1,5-a]pyridin-7-yloxy)-3-methylphenyl)amino)pyrrolo[2,1-f][1,2,4]triazin-5-yl)azetidin-1-yl)-4-(4-fluoropiperidin-1-yl)but-2-en-1-one]"
500 to 1500,500 to 1500,1500 to 5000,"Cc1cc(Nc2ncnn3ccc(N4CCN(C(=O)C(F)Cl)CC(F)(F)C4)c23)ccc1Oc1ccn2ncnc2c1 (stereo not drawn) [Example 63, 1-(4-(4-((4-([1,2,4]triazolo[1,5-a]pyridin-7-yloxy)-3-methylphenyl)amino)pyrrolo[2,1-f][1,2,4]triazin-5-yl)-6,6-difluoro-1,4-diazepan-1-yl)-2-chloro-2-fluoroethan-1-one]"
< 200,< 200,200 to 500,"Cc1cc(Nc2ncnn3ccc(C4CCN(C(=O)C#CCN(C)C)CC4)c23)ccc1Oc1ccn2ncnc2c1 [Example 64, 1-(4-(4-((4-([1,2,4]triazolo[1,5-a]pyridin-7-yloxy)-3-methylphenyl)amino)pyrrolo[2,1-f][1,2,4]triazin-5-yl)piperidin-1-yl)-4-(dimethylamino)but-2-yn-1-one]"
< 200,< 200,1500 to 5000,"Cc1cc(Nc2ncnn3ccc(C4CCN(C(=O)/C=C/C5CCCN5C)CC4)c23)ccc1Oc1ccn2ncnc2c1 (stereo not drawn) [Example 65, (E)-1-(4-(4-((4-([1,2,4]triazolo[1,5-a]pyridin-7-yloxy)-3-methylphenyl)amino)pyrrolo[2,1-f][1,2,4]triazin-5-yl)piperidin-1-yl)-3-(1-methylpyrrolidin-2-yl)prop-2-en-1-one]"
< 200,< 200,1500 to 5000,"Cc1cc(Nc2ncnn3ccc(C4CN(C(=O)/C=C/C5CCCN5C)C4)c23)ccc1Oc1ccn2ncnc2c1 (stereo not drawn) [Example 66, (E)-1-(3-(4-((4-([1,2,4]triazolo[1,5-a]pyridin-7-yloxy)-3-methylphenyl)amino)pyrrolo[2,1-f][1,2,4]triazin-5-yl)azetidin-1-yl)-3-(1-methylpyrrolidin-2-yl)prop-2-en-1-one]"
< 200,< 200,500 to 1500,"C=C(CN(C)C)C(=O)N1CC(c2ccn3ncnc(Nc4ccc(Oc5ccc6c(c5)ncn6C)c(C)c4)c23)C1 [Example 67, 2-((dimethylamino)methyl)-1-(3-(4-((3-methyl-4-((1-methyl-1H-benzo[d]imidazol-5-yl)oxy)phenyl)amino)pyrrolo[2,1-f][1,2,4]triazin-5-yl)azetidin-1-yl)prop-2-en-1-one]"
< 200,< 200,1500 to 5000,"Cc1cc(Nc2ncnn3ccc(N4CCCC(N(C)C(=O)/C=C/CN(C)C)C4)c23)ccc1Oc1ccn2ncnc2c1 (stereo not drawn) [Example 68, (E)-N-(1-(4-((4-([1,2,4]triazolo[1,5-a]pyridin-7-yloxy)-3-methylphenyl)amino)pyrrolo[2,1-f][1,2,4]triazin-5-yl)piperidin-3-yl)-4-(dimethylamino)-N-methylbut-2-enamide]"
< 200,200 to 500,1500 to 5000,"C=CC(=O)N(C)C1CCCN(c2ccn3ncnc(Nc4ccc(Oc5ccn6ncnc6c5)c(C)c4)c23)C1 (stereo not drawn) [Example 69, N-(1-(4-((4-([1,2,4]triazolo[1,5-a]pyridin-7-yloxy)-3-methylphenyl)amino)pyrrolo[2,1-f][1,2,4]triazin-5-yl)piperidin-3-yl)-N-methylacrylamide]"
< 200,< 200,1500 to 5000,"Cc1cc(Nc2ncnn3ccc(N4CCC(N(C)C(=O)/C=C/CN(C)C)C4)c23)ccc1Oc1ccn2ncnc2c1 (stereo not drawn) [Example 70, (E)-N-(1-(4-((4-([1,2,4]triazolo[1,5-a]pyridin-7-yloxy)-3-methylphenyl)amino)pyrrolo[2,1-f][1,2,4]triazin-5-yl)pyrrolidin-3-yl)-4-(dimethylamino)-N-methylbut-2-enamide]"
< 200,200 to 500,1500 to 5000,"Cc1cc(Nc2ncnn3ccc(N4CC(NC(=O)/C=C/CN(C)C)C4)c23)ccc1Oc1ccn2ncnc2c1 [Example 71, (E)-N-(1-(4-((4-([1,2,4]triazolo[1,5-a]pyridin-7-yloxy)-3-methylphenyl)amino)pyrrolo[2,1-f][1,2,4]triazin-5-yl)azetidin-3-yl)-4-(dimethylamino)but-2-enamide]"
< 200,500 to 1500,1500 to 5000,"Cc1cc(Nc2ncnn3ccc(N4CCC(N(C)C(=O)/C=C/CN(C)C)CC4)c23)ccc1Oc1ccn2ncnc2c1 [Example 73, (E)-N-(1-(4-((4-([1,2,4]triazolo[1,5-a]pyridin-7-yloxy)-3-methylphenyl)amino)pyrrolo[2,1-f][1,2,4]triazin-5-yl)piperidin-4-yl)-4-(dimethylamino)-N-methylbut-2-enamide]"
< 200,500 to 1500,1500 to 5000,"C=CC(=O)N(C)C1CCN(c2ccn3ncnc(Nc4ccc(Oc5ccn6ncnc6c5)c(C)c4)c23)CC1 [Example 74, N-(1-(4-((4-([1,2,4]triazolo[1,5-a]pyridin-7-yloxy)-3-methylphenyl)amino)pyrrolo[2,1-f][1,2,4]triazin-5-yl)piperidin-4-yl)-N-methylacrylamide]"
< 200,< 200,500 to 1500,"C=CC(=O)N1CCN(c2ccn3ncnc(Nc4ccc(Oc5ccn6ncnc6c5)c(C)c4)c23)CC12CC2 [Example 75, 1-(7-(4-((4-([1,2,4]triazolo[1,5-a]pyridin-7-yloxy)-3-methylphenyl)amino)pyrrolo[2,1-f][1,2,4]triazin-5-yl)-4,7-diazaspiro[2.5]octan-4-yl)prop-2-en-1-one]"

Structure (SMILES),GI50 (BaF3_HER2WT cells) [nM],GI50 (BaF3_HER2YVMA cells) [nM],GI50 (BaF3_EGFRWT cells) [nM]
"C=CC(=O)N(C)C1CCN(c2ccn3ncnc(Nc4ccc(Oc5ccn6ncnc6c5)c(C)c4)c23)C1 (stereo not drawn) [Example 72, N-(1-(4-((4-([1,2,4]triazolo[1,5-a]pyridin-7-yloxy)-3-methylphenyl)amino)pyrrolo[2,1-f][1,2,4]triazin-5-yl)pyrrolidin-3-yl)-N-methylacrylamide]",< 200,< 200,1500 to 5000
